Read-outs that look alike come from different tables or passages of the source.
Tests used:
[1] = Beagle; for plasma level adjusted to 0.14 mg/kg: Hucker IV
Method: Doses were expressed as free base, and so should be adjusted by MW Free Base 275 g/mole/MW HCl salt 312 g/mole. […] In our Beagle studies, the dose was 0.14 mg/kg, which is approximately 1/12.6 the dose of the Hucker studies.

[2] = Pharmacokinetics of sublingual cyclobenzaprine HCl tablets with and without K2HPO4 (Example 10); type: in vivo, beagle dog; details: 2.4 mg sublingual tablet with basifying agent
Method: Pharmacokinetic parameters were then calculated and compared.
For sublingual dosing, dogs were given propofol and were put in a lying position (ventral decubitis). The mouth was gently opened and the tablet was placed under the tongue. The tongue was then immediately replaced in its initial position and the mouth was closed. The dog was left in the same position until waking. […] After the washout period of two weeks, dogs were sedated in the same way and given a single sublingual dose of the formulation without basifying agent. Blood samples after both types of treatment were taken pre-dose and at 5, 10, 20, 30, and 45 minutes, and at 1, 2, 3, 4, 6, 8, and 10 hours after dose administration. Blood was taken from the jugular vein.
The method involved liquid-liquid extraction with hexane. The extracts were injected using an HPLC system and an API4000® (Applied Biosystems) for MS/MS detection, with an “Onyx monolithic Phenomenex C18 100×3.0 mm” column.
Sublingual administration was performed by placing the control tablet or tablet with K2HPO4 under the tongue when female beagles were slightly anesthetized with propofol.

clinical [3] = details: human, in vivo, 2.4 mg
Method: Treatment A: A single dose of one TNX-102 2.4 mg SL tablet (with phosphate). Subjects were asked to keep the tablet under the tongue until dissolved and not to crush or chew it. Subjects were asked not to drink any water until at least 1 hour after dosing.
Treatment B: A single dose of one TNX-102-A 2.4 mg SL tablet (without phosphate). Subjects were asked to keep the tablet under the tongue until dissolved and not to crush or chew it. Subjects were asked not to drink any water until at least 1 hour after dosing.
Treatment C: A single dose of two TNX-102 2.4 mg SL tablets (with phosphate). Subjects will be asked to keep the tablets under the tongue until dissolved and not to crush or chew them. Subjects were asked not to drink any water until at least 1 hour after dosing.
Subjects were asked to swallow the administered tablet whole and not to crush or chew it.
Partial AUC at different times were calculated to examine the effect of sublingual administration on absorption.

[4] = humans, cited from earlier work
[5] = cited from earlier work
[6] = target: T1, adrenergic alpha-2B receptor (Alpha2B) (Homo sapiens, UniProt P18089); experiment: Equilibrium receptor binding, recombinant human receptor
T1 construct: expressed in transfected cells
T1 sequence (P18089 whole entry): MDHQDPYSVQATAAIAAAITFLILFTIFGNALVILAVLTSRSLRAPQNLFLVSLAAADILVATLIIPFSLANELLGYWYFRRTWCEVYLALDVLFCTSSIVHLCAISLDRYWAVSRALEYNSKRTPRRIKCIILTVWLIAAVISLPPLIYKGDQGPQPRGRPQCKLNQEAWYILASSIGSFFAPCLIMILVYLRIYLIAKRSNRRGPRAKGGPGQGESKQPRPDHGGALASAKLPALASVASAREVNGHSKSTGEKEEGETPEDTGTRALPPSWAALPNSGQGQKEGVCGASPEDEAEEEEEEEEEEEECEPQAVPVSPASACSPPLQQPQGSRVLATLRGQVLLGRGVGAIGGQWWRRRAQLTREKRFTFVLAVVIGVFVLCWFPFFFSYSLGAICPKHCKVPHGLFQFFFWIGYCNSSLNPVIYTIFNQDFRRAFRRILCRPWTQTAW

clinical [7] = details: human, in vivo, po, 5 mg
Method: The conditions used were as follows:
Quantitation was based on peak area ratio of the analytes versus their stable labeled internal standards. A weighted (1/C2), linear regression was performed to determine the concentration of the analytes. All regressions and figures presented in this validation report were generated by MDS Sciex Analyst version 1.4.2 and Thermo Electron Corporation Watson LIMS software, version 7.0.0.01b. […] Select receptors were analyzed in ligand-induced intracellular calcium mobilization.

[8] = humans, cited from earlier work; remark: listed apart in the source
muscarinic M2 receptor [9] = target: T2, muscarinic M2 receptor (Homo sapiens, UniProt P08172); experiment: G-protein-dependent signal transduction, intracellular Ca2+ mobilization
T2 sequence (P08172 whole entry): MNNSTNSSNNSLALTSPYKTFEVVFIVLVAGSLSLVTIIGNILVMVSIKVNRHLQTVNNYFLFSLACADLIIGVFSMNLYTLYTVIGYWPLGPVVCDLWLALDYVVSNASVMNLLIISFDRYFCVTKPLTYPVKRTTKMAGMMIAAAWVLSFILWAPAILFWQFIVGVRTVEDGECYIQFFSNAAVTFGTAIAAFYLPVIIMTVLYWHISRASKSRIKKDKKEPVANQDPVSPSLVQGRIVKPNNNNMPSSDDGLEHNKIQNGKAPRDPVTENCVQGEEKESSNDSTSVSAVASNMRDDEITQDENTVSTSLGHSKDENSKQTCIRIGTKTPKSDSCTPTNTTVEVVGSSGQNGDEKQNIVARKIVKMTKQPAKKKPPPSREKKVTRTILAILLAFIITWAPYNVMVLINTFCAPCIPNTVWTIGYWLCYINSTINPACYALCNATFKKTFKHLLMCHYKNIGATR

muscarinic M1 receptor = target: T3, muscarinic M1 receptor (Homo sapiens, UniProt P11229)
T3 sequence (P11229 1-460): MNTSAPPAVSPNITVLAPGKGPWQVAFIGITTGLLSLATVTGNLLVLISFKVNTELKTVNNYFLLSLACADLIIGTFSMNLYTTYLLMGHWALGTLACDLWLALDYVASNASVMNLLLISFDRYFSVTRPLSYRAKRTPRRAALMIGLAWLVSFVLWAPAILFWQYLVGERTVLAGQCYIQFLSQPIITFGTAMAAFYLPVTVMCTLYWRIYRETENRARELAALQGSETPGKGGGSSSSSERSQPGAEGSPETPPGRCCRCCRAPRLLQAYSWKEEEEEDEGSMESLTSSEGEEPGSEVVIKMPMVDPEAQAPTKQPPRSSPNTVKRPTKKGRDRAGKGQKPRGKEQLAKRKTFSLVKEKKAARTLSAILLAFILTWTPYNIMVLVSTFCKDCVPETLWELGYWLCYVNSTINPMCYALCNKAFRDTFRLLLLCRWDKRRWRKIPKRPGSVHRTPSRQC

muscarinic M2 receptor [10] = target: T2, muscarinic M2 receptor; experiment: Equilibrium receptor binding, recombinant human receptor; design: expressed in transfected cells
[11] = 2.5 mg immediate release tablets (Winchell)
[12] = 5.0 mg immediate release tablets (Winchell)
[13] = 10 mg immediate release tablets (Winchell)

CN(C)CCC=C1c2ccccc2C=Cc2ccccc21 [cyclobenzaprine, 3-(5H-dibenzo[a,d]cyclohepten-5-ylidene)-N,N-dimethyl-1-propanamine]
plasma level adjusted to 0.14 mg/kg ([1]; 0.5 h): 34.1 ng/mL | plasma level adjusted to 0.14 mg/kg ([1]; 2 hours): 47.6 ng/mL | plasma level adjusted to 0.14 mg/kg ([1]; 6 h): 35.7 ng/mL | peak plasma level adjusted to 0.14 mg/kg ([1]; Hucker PO gelatin capsule, at 2 hours): 115.9 ng/mL | dbmnAUC0-0.75 h ([2]; Beagles 12.5 kg): 0.000708 kg·h/mL | dnAUC0-0.75 h ([2]; Beagles): 5.65e-05 h/mL | AUC(0-inf) (clinical [3]): ~61 ng·h/mL | Cmax (clinical [3]): ~2.74 ng/mL | AUC(0-t) (clinical [3]; AUC0-20min): ~0.04 ng·h/mL | AUC(0-t) (clinical [3]; AUC0-30min): ~0.13 ng·h/mL | AUC(0-t) (clinical [3]; AUC0-45min): ~0.33 ng·h/mL | AUC(0-t) (clinical [3]; AUC0-1 h): ~0.61 ng·h/mL | AUC(0-t) (clinical [3]; AUC0-2 h): ~2.1 ng·h/mL | AUC(0-t) (clinical [3]; AUC0-3 h): ~3.93 ng·h/mL | AUC(0-t) (clinical [3]; AUC0-4 h): ~6.27 ng·h/mL | AUC(0-t) (clinical [3]; AUC0-5.5 h): ~10.1 ng·h/mL | AUC(0-t) (clinical [3]; AUC0-6 h): ~11.3 ng·h/mL | AUC(0-t) (clinical [3]; AUC0-8 h): ~15.1 ng·h/mL | AUC(0-t) (clinical [3]; AUC0-12 h): ~50.3 ng·h/mL | AUC(0-t) (clinical [3]; AUC0-[…] (second mention, after AUC0-[…])): ~8.81 ng·h/mL | upper limit for the half-life of the first phase (distribution out of plasma) ([4]; IV bolus): 3 to 5 min | amount in plasma as % of the theoretical initial concentration (Cinit) ([4]; within 3 to 30 minutes after IV bolus): less than 5% | plasma level (radioactive equivalents) ([5]; Beagles, 1.76 mg/kg by mouth, 1 hr (Hucker)): 1.14 μg/ml [equivalent] | plasma level (radioactive equivalents) ([5]; Beagles, 1.76 mg/kg by mouth, 2 hr (Hucker)): 1.46 μg/ml [equivalent] | plasma level (radioactive equivalents) ([5]; Beagles, 1.76 mg/kg by mouth, 4 hr (Hucker)): 0.92 μg/ml [equivalent] | plasma level (radioactive equivalents) ([5]; Beagles, 1.76 mg/kg by mouth, 6 hr (Hucker)): 0.58 μg/ml [equivalent] | plasma level (radioactive equivalents) ([5]; Beagles, 1.76 mg/kg by mouth, 24 hr (Hucker)): 0.10 μg/ml [equivalent] | plasma level (radioactive equivalents) ([5]; Beagles, 1.76 mg/kg cyclobenzaprine HCl by mouth, 0.5 h (Hucker)): 0.72 μg/ml [equivalent] | plasma level, Hucker dose adjusted for 0.14 mg/kg ([5]; IV (saline), t 0.5 h): 34.1 ng/mL | plasma level, Hucker dose adjusted for 0.14 mg/kg ([5]; IV (saline), t 1 h): 42.1 ng/mL | plasma level, Hucker dose adjusted for 0.14 mg/kg ([5]; IV (saline), t 2 h): 47.6 ng/mL | plasma level, Hucker dose adjusted for 0.14 mg/kg ([5]; IV (saline), t 4 h): 43.7 ng/mL | plasma level, Hucker dose adjusted for 0.14 mg/kg ([5]; IV (saline), t 6 h): 35.7 ng/mL | plasma level, Hucker dose adjusted for 0.14 mg/kg ([5]; IV (saline), t 24 h): 9.5 ng/mL | plasma level, Hucker dose adjusted for 0.14 mg/kg ([5]; PO (gelatin capsule), t 0.5 h): 57.1 ng/mL | plasma level, Hucker dose adjusted for 0.14 mg/kg ([5]; PO (gelatin capsule), t 1 h): 90.5 ng/mL | plasma level, Hucker dose adjusted for 0.14 mg/kg ([5]; PO (gelatin capsule), t 2 h): 115.9 ng/mL | plasma level, Hucker dose adjusted for 0.14 mg/kg ([5]; PO (gelatin capsule), t 4 h): 73.0 ng/mL | plasma level, Hucker dose adjusted for 0.14 mg/kg ([5]; PO (gelatin capsule), t 6 h): 46.0 ng/mL | plasma level, Hucker dose adjusted for 0.14 mg/kg ([5]; PO (gelatin capsule), t 24 h): 7.9 ng/mL | plasma level (radioactive equivalents) ([5]; dogs, 2 mg/kg intravenous in saline, 0.5 h (Hucker)): 0.43 μg/ml [equivalent] | plasma level (radioactive equivalents) ([5]; dogs, 2 mg/kg intravenous in saline, 1 hr (Hucker)): 0.53 μg/ml [equivalent] | plasma level (radioactive equivalents) ([5]; dogs, 2 mg/kg intravenous in saline, 2 hr (Hucker)): 0.60 μg/ml [equivalent] | plasma level (radioactive equivalents) ([5]; dogs, 2 mg/kg intravenous in saline, 4 hr (Hucker)): 0.55 μg/ml [equivalent] | plasma level (radioactive equivalents) ([5]; dogs, 2 mg/kg intravenous in saline, 6 hr (Hucker)): 0.45 μg/ml [equivalent] | plasma level (radioactive equivalents) ([5]; dogs, 2 mg/kg intravenous in saline, 24 hr (Hucker)): 0.12 μg/ml [equivalent] | Ki [6]: 21 nM | AUC(0-t) (clinical [7]): 92.2 ± 29.9 ng·h/mL | AUC0-8 h [8, 11]: 11.1 ng·h/mL | AUC0-∞h [8, 11]: 44.2 ng·h/mL | AUC0-8 h [8, 12]: 23.0 ng·h/mL | AUC0-∞h [8, 12]: 89.5 ng·h/mL | AUC0-8 h [8, 13]: 45.9 ng·h/mL | AUC0-∞h [8, 13]: 178.2 ng·h/mL

CNCCC=C1c2ccccc2C=Cc2ccccc21 [norcyclobenzaprine, 3-(5H-dibenzo[a,d]cyclohepten-5-ylidene)-N-methyl-1-propanamine]
IC50 (muscarinic M2 receptor [9]): 33 nM | Hill plot ratio (Hill slope) (muscarinic M1 receptor): 0.70 | Ki (muscarinic M2 receptor [10]): 76 nM | Ki [6]: 150 nM
